Where two headings read alike, the source gives them in different places. Each block holds one compound with its values, some of them ahead of it.
Assays:
[1] = test system: MDA-MB-435S human breast cancer cells; experiment: MTT assay, proliferation of MDA-MB-435S cells; format: cell-based; details: Homo sapiens, 72 h
Procedure: The experiments for evaluating the antineoplasmic activities of the compounds according to the present invention were carried out, and the compounds' antineoplasmic activities in vitro was evaluated by determining the inhibitory activities thereof against the proliferation of MDA-MB-435S human breast cancer cells.
The antineoplasmic activities were determined by using the MTT assay, which is based on the metabolic reduction of 3-(4,5-dimethylthylthiazol-2-yl)-2,5-diphenyl tetrazolium bromide (MTT). The dehydrogenases, which are related to NADP (niacinamide adenine dinucleotide phosphate, coenzyme) and present in mitochondrions of living cells, can reduce the yellow MTT to an insoluble, dark purple formazan. […] After the formazan is dissolved in DMSO, the optical density is determined on an ELISA Reader at the wavelength of 550/690 nm.
(§1) The adhered MDA-MB-4355 cells in logarithmic growth phase, were digested by 0.05% trypsogen, counted and formulated into a cell suspension with a medium. After counted, the suspension was inoculated on a 96-well plate with 3000 cells and 100 μl medium per well. The inoculated 96-well plate was placed overnight in an incubator at 37 with 5% CO2 to allow the cells to adhere to the wall. On the next day, the administration of the drugs started. Before the administration, into some of the control wells, each was added 20 μl of the MTT solution (5 mg/ml) without removing the medium therein. After incubated for 3 h, the absorption at A550/690 was recorded as the initial cell concentration. For the drug wells, each was added into 100 μl of medium containing 2 μl of compound solution. For the control wells which use DMSO as background control, each was also added into 100 μl of medium containing 2 μl of DMSO. In addition, each experiment was carried out with adriamycin as the positive control. Subsequently, the 96-well plate was incubated in an incubator at 37 with 5% CO2 for 72 h. each compound was tested in triplicate wells (6 μl of compound solution was put into a sterilized eppendorf centrifuge tube, then 300 μl of medium was added and mixed well, and the mixture was distributed into 3 wells respectively), and at six concentrations which form a gradient. 3 days (72 h) later, 40 μl of MTT solution (5 mg/ml) was put into each well directly (without sucking off the medium therein), and the plate was incubated in the incubator for 3 h and then taken out. The liquid in each well was sucked off, and then 100 μl of DMSO was put into each well to dissolve the crystal completely with slight shake. The absorbance of the solution in each well was determined at 550/690 nm on an ELISA Reader as the cell density after treated with the compound. The growth inhibition of compound against breast cancer cells MDA-MB-435S was represented by the cell survival rate, and IC50 was determined from the profile of cell survival rate vs compound concentration. The calculating formula was as follows: cell survival rate=[(cells+compound)A550/690/(cells+compound vector DMSO)A550/690]×100%

[2] = test system: Hela uterine cervix cancer cells; experiment: MTT assay, Hela cells; format: cell-based; details: Homo sapiens, 72 h, 1000 cells per well
Procedure: as §1
(§2) MDA-MB-435S: human breast cancer cells; HCT116: colon cancer cells; A549: lung adenocarcinoma cells; Hela: uterine cervix cancer cells.
(§3) The tests were performed in the same manner as that of experimental example 1, except that for Hela cells, after counted, each well was seeded with 1000 cells and 100 μl of medium on a 96-well plate.

[3] = test system: lung adenocarcinoma cells A549; experiment: MTT assay, A549 cells; format: cell-based; details: Homo sapiens, 72 h
Procedure: as §1, §2, §3

[4] = test system: colon cancer cells HCT116; experiment: MTT assay, HCT116 cells; format: cell-based; details: Homo sapiens, HCT-116, 72 h
Procedure: as §1, §2, §3

[5] = test system: human tumor cells; details: background; cited from earlier work
[6] = test system: heterograft of MDA-MB-4355 human breast cancer cells; details: background; cited from earlier work
[7] = background; cited from earlier work
[8] = test system: HMEC (Others); experiment: SRB assay, HMEC; format: cell-based; details: Homo sapiens, 72 h, read-out: IC50 (μM) (mean ± SD)
Procedure: (§4) Experimental method: The antineoplasmic activities in vitro of the compounds were determined by SRB assay. The detailed procedure was as follows. The cells in the logarithmic growth phase were inoculated on a 96-well microculture plate with a suitable density (100 μl/well), and allowed to attach overnight, followed by addition of the compound at different concentrations to be treated for 72 h. For each concentration, the test was carried out in triplicate wells, and included control wells containing the aqueous medium of normal saline and a blank well containing all medium without cells for zeroing. After cultured overnight, the cells were treated with the compound at different concentrations for 72 h. After the treatment, the culture medium was removed, and the cells were fixed with 10% (wt/vol) trichloroacetic acid (100 μL/well) at 4° C. for 1 h. The cells were then washed with distilled water for 5 times, and died at room temperature, followed by addition of a SRB solution (4 mg/mL, dissolved in 1% glacial acetic acid) at 100 μL/well. The cells were incubated and stained at room temperature for 15 min, then washed with 1% glacial acetic acid for 5 times to remove the uncombined SRB, and died at room temperature. 100 μL of 10 mM Tris solution was added in each well, and the Optical Density (OD) were measured at a wavelength of 560 nm on a VERSMax ELISA Reader (Molecule Devices). The growth inhibition of the compound against tumor cells was calculated according to the following equation: Growth inhibition (%)=(ODcontrol−ODtreated)/ODcontrol×100%.
(§5) IC50 (the concentration of the sample compound that is required for 50% inhibition of cell growth) was calculated by using the Logit method based on the measurement, and each test was repeated for 3 times to calculate the mean value and standard deviation.

[9] = test system: HepG2 (Liver Cancer); experiment: SRB assay, HepG2; format: cell-based; details: Homo sapiens, 72 h, read-out: IC50 (μM) (mean ± SD)
Procedure: as §4, §5

[10] = test system: HPAF-II (Pancreatic Cancer); experiment: SRB assay, HPAF-II; format: cell-based; details: Homo sapiens, 72 h, read-out: IC50 (μM) (mean ± SD)
Procedure: as §4, §5

[11] = test system: A549 (Lung Cancer); experiment: SRB assay, A549; format: cell-based; details: Homo sapiens, 72 h, read-out: IC50 (μM) (mean ± SD)
Procedure: as §4, §5

[12] = test system: BEL-7402 (Liver Cancer); experiment: SRB assay, BEL-7402; format: cell-based; details: Homo sapiens, 72 h, read-out: IC50 (μM) (mean ± SD)
Procedure: as §4, §5

[13] = test system: Zip177 (Liver Cancer); experiment: SRB assay, Zip177; format: cell-based; details: 72 h, read-out: IC50 (μM) (mean ± SD)
Procedure: as §4, §5

[14] = test system: MDA-MB-435 (Breast Cancer); experiment: SRB assay, MDA-MB-435; format: cell-based; details: Homo sapiens, 72 h, read-out: IC50 (μM) (mean ± SD)
Procedure: as §4, §5

[15] = test system: HO-8910 (Ovarian Cancer); experiment: SRB assay, HO-8910; format: cell-based; details: 72 h, read-out: IC50 (μM) (mean ± SD)
Procedure: as §4, §5

[16] = test system: HCT-116 (Colon Cancer); experiment: SRB assay, HCT-116; format: cell-based; details: Homo sapiens, 72 h, read-out: IC50 (μM) (mean ± SD)
Procedure: as §4, §5

[17] = test system: 7404 (Liver Cancer); experiment: SRB assay, 7404; format: cell-based; details: 72 h, read-out: IC50 (μM) (mean ± SD)
Procedure: as §4, §5

[18] = test system: SMMC-7721 (Liver Cancer); experiment: SRB assay, SMMC-7721; format: cell-based; details: Homo sapiens, 72 h, read-out: IC50 (μM) (mean ± SD)
Procedure: as §4, §5

[19] = test system: SGC-7901 (Gastric Cancer); experiment: SRB assay, SGC-7901; format: cell-based; details: Homo sapiens, 72 h, read-out: IC50 (μM) (mean ± SD)
Procedure: as §4, §5

[20] = test system: DU145 (Prostatic Cancer); experiment: SRB assay, DU145; format: cell-based; details: Homo sapiens, DU-145, 72 h, read-out: IC50 (μM) (mean ± SD)
Procedure: as §4, §5

[21] = clinical study entered 2001; cited from earlier work
[22] = note: MDA-MB-435S, read-out: IC50 (MDA-MB-435)
[23] = read-out: Cell Survival Rate IC50

Structure (SMILES): CCCCCCCCCCCCCC(=O)O[C@H]1CC[C@H](NC(=O)[C@H](OC)[C@H](O)[C@@H](O)[C@H](O)/C=C/C(C)C)C(=O)N(C)C1 [bengamide B]
activities against human tumor cells in vitro [5]: nanomolar level
growth of heterograft in vivo [6]: remarkably depress the growth
solubility [7]: poor solubility

Structure (SMILES): CO[C@@H](C(=O)N[C@@H](C)C(=O)NCCOC1CCCCC1)[C@H](O)[C@@H](O)[C@H](O)/C=C/C(C)(C)C [Compound L458e]
IC50 [1, 22]: 2.83 ± 0.695 µM
IC50 [1, 23]: 2.19 µM
IC50 [2]: 0.822 ± 0.175 µM
IC50 [3]: 0.594 ± 0.069 µM
IC50 [4]: 1.51 ± 0.283 µM

Structure (SMILES): CO[C@@H](C(=O)N[C@H]1CC[C@@H](OC(=O)C2CCCCC2)CNC1=O)[C@H](O)[C@@H](O)[C@H](O)/C=C/C(C)(C)C [LAF389, reference compound]
IC50 [1, 23]: 0.61 µM
activities against human tumor cells in vitro [5]: comparable to Bengamide B
IC50 [8]: 0.83 ± 0.45 µM
IC50 [9]: 0.21 ± 0.09 µM
IC50 [10]: 3.23 ± 2.13 µM
IC50 [11]: 0.05 ± 0.01 µM
IC50 [12]: 0.56 ± 0.4 µM
IC50 [13]: 2.79 ± 0.15 µM
IC50 [14]: 0.29 ± 0.02 µM
IC50 [15]: > 20 µM
IC50 [16]: 0.63 ± 0.18 µM
IC50 [17]: > 20 µM
growth of heterograft in vivo [6]: comparable to Bengamide B
solubility [7]: good solubility
side effects in clinical study [21]: side effects such as taste disturbance, blurred vision
therapeutic effects in clinical study [21]: did not possess the foreseen therapeutic effects
IC50 [18]: 1.25 ± 0.76 µM
IC50 [19]: 4.96 ± 0.4 µM
IC50 [20]: 0.42 ± 0.21 µM

Structure (SMILES): CCOC(=O)CNC(=O)[C@H](C)NC(=O)[C@H](OC)[C@H](O)[C@@H](O)[C@H](O)/C=C/C(C)(C)C [Compound L418]
IC50 [1, 22]: 5.17 ± 0.941 µM
IC50 [1, 23]: 5.17 µM
IC50 [2]: 0.572 ± 0.171 µM
IC50 [3]: 1.55 ± 0.241 µM
IC50 [4]: 1.51 ± 0.215 µM

Now from value to compound, other results behind:

IC50 [1, 22]: 0.284 ± 0.1 µM
IC50 [2]: 0.165 ± 0.03 µM
IC50 [3]: 0.075 ± 0.014 µM
IC50 [4]: 0.097 ± 0.013 µM
Structure (SMILES): CO[C@@H](C(=O)N[C@@H](C)C(=O)NCCOC(=O)C1CCCCC1)[C@H](O)[C@@H](O)[C@H](O)/C=C/C(C)(C)C [Compound L486d]
IC50 [1, 23]: 0.28 µM

IC50 [1, 22]: 0.201 ± 0.047 µM
IC50 [2]: 0.024 ± 0.003 µM
IC50 [9]: 1.11 ± 0.49 µM
IC50 [10]: 2.01 ± 1.06 µM
IC50 [11]: 0.08 ± 0.02 µM
IC50 [12]: 0.28 ± 0.01 µM
IC50 [3]: 0.098 ± 0.018 µM
IC50 [13]: 0.26 ± 0.05 µM
IC50 [14]: 0.14 ± 0.13 µM
IC50 [15]: > 20 µM
IC50 [16]: 0.58 ± 0.25 µM
IC50 [17]: > 20 µM
IC50 [4]: 0.051 ± 0.005 µM
IC50 [18]: 0.41 ± 0.15 µM
IC50 [19]: 1.97 ± 0.86 µM
IC50 [20]: 0.14 ± 0.01 µM
Structure (SMILES): CCOC(=O)C(COC(=O)C1CCCCC1)NC(=O)[C@H](C)NC(=O)[C@H](OC)[C@H](O)[C@@H](O)[C@H](O)/C=C/C(C)(C)C (stereo partly drawn) [Compound L558a]
IC50 [1, 23]: 0.2 µM
IC50 [8]: 0.25 ± 0.14 µM

IC50 [1, 22]: 0.51 ± 0.124 µM
IC50 [3]: 0.261 ± 0.065 µM
IC50 [4]: 0.11 ± 0.013 µM
Structure (SMILES): COc1cccc2c1C(=O)c1c(O)c3c(c(O)c1C2=O)C[C@@](O)(C(=O)CO)C[C@@H]3O[C@H]1C[C@H](N)[C@H](O)[C@H](C)O1 [adriamycin, reference compound]
IC50 [1, 23]: 0.51 µM

IC50 [1, 22]: 0.398 ± 0.128 µM
IC50 [2]: 0.158 ± 0.032 µM
IC50 [9]: 0.56 ± 0.08 µM
IC50 [10]: 1.57 ± 0.35 µM
IC50 [11]: 0.03 ± 0.01 µM
IC50 [12]: 0.33 ± 0.21 µM
IC50 [3]: 0.076 ± 0.008 µM
IC50 [13]: 0.4 ± 0.21 µM
IC50 [14]: 0.08 ± 0.01 µM
IC50 [15]: > 20 µM
IC50 [16]: 0.35 ± 0.11 µM
IC50 [17]: > 20 µM
IC50 [4]: 0.071 ± 0.007 µM
IC50 [18]: 0.65 ± 0.26 µM
IC50 [19]: 2.21 ± 0.67 µM
IC50 [20]: 0.29 ± 0.06 µM
Structure (SMILES): CO[C@@H](C(=O)N[C@@H](C)C(=O)NCCOC(=O)CCc1ccccc1)[C@H](O)[C@@H](O)[C@H](O)/C=C/C(C)(C)C [Compound L508]
IC50 [8]: 0.21 ± 0.02 µM

IC50 [1, 22]: 0.541 ± 0.205 µM
IC50 [2]: 0.188 ± 0.042 µM
IC50 [3]: 0.219 ± 0.03 µM
IC50 [4]: 0.13 ± 0.015 µM
Structure (SMILES): CO[C@@H](C(=O)N[C@@H](C)C(=O)NCCOC(=O)C1CC=CCC1)[C@H](O)[C@@H](O)[C@H](O)/C=C/C(C)(C)C (stereo partly drawn) [Compound L484]
IC50 [1, 23]: 0.54 µM

— patent US8470763B2, “Alpha-amino-N-substituted amides, pharmaceutical composition containing them and uses thereof” (Shanghai Institute of Materia Medica Chinese Academy of …, priority 2007, dated 2013)
